# Numbers after ± are expanded uncertainties.
# Settings: Liquid, Ebulliometric method (Recirculating still)
structure (smiles),measurement,setting,value
CCCCCCCCCCCCCCO [1-tetradecanol],vapor or sublimation pressure,479.42 K,8.319 ± 0.013 kPa
same,vapor or sublimation pressure,487.56 K,11.05 ± 0.015 kPa
same,vapor or sublimation pressure,494.5 K,13.89 ± 0.018 kPa
same,vapor or sublimation pressure,500.44 K,16.78 ± 0.021 kPa
same,vapor or sublimation pressure,506.63 K,20.26 ± 0.025 kPa
same,vapor or sublimation pressure,513.01 K,24.53 ± 0.036 kPa
same,vapor or sublimation pressure,513.07 K,24.53 ± 0.036 kPa
same,vapor or sublimation pressure,519.11 K,29.35 ± 0.043 kPa
same,vapor or sublimation pressure,519.18 K,29.35 ± 0.043 kPa
"CC(C)(C)CO [2,2-dimethyl-1-propanol]",vapor or sublimation pressure,345.9 K,20.26 ± 0.031 kPa
same,vapor or sublimation pressure,350 K,24.53 ± 0.035 kPa
same,vapor or sublimation pressure,353.97 K,29.35 ± 0.041 kPa
same,vapor or sublimation pressure,357.84 K,34.76 ± 0.047 kPa
same,vapor or sublimation pressure,361.57 K,40.7 ± 0.055 kPa
same,vapor or sublimation pressure,365.36 K,47.56 ± 0.064 kPa
same,vapor or sublimation pressure,371.31 K,60.19 ± 0.078 kPa
same,vapor or sublimation pressure,377 K,74.65 ± 0.095 kPa
same,vapor or sublimation pressure,383.15 K,93.23 ± 0.11 kPa
same,vapor or sublimation pressure,384.84 K,98.94 ± 0.12 kPa
CCCCCCCO [heptan-1-ol],vapor or sublimation pressure,382.3 K,8.324 ± 0.015 kPa
same,vapor or sublimation pressure,388.34 K,11.05 ± 0.017 kPa
same,vapor or sublimation pressure,388.36 K,11.05 ± 0.017 kPa
same,vapor or sublimation pressure,393.65 K,13.89 ± 0.02 kPa
same,vapor or sublimation pressure,393.67 K,13.89 ± 0.02 kPa
same,vapor or sublimation pressure,398 K,16.77 ± 0.023 kPa
same,vapor or sublimation pressure,402.68 K,20.25 ± 0.027 kPa
same,vapor or sublimation pressure,407.45 K,24.53 ± 0.032 kPa
same,vapor or sublimation pressure,407.46 K,24.54 ± 0.032 kPa
same,vapor or sublimation pressure,412.21 K,29.34 ± 0.038 kPa
same,vapor or sublimation pressure,412.22 K,29.35 ± 0.038 kPa
same,vapor or sublimation pressure,416.72 K,34.76 ± 0.044 kPa
same,vapor or sublimation pressure,416.78 K,34.76 ± 0.044 kPa
same,vapor or sublimation pressure,421.2 K,40.69 ± 0.051 kPa
same,vapor or sublimation pressure,425.69 K,47.55 ± 0.049 kPa
same,vapor or sublimation pressure,425.77 K,47.57 ± 0.049 kPa
same,vapor or sublimation pressure,432.77 K,60.19 ± 0.073 kPa
same,vapor or sublimation pressure,439.55 K,74.66 ± 0.089 kPa
same,vapor or sublimation pressure,446.78 K,92.98 ± 0.11 kPa
same,vapor or sublimation pressure,446.82 K,93.13 ± 0.11 kPa
same,vapor or sublimation pressure,446.87 K,93.24 ± 0.11 kPa
same,vapor or sublimation pressure,448.6 K,98.12 ± 0.12 kPa
same,vapor or sublimation pressure,448.63 K,98.2 ± 0.12 kPa
same,vapor or sublimation pressure,450.73 K,104.37 ± 0.12 kPa
same,vapor or sublimation pressure,452.84 K,110.87 ± 0.13 kPa
same,vapor or sublimation pressure,452.97 K,111.28 ± 0.13 kPa
CCCCCCO [hexan-1-ol],vapor or sublimation pressure,366.67 K,8.323 ± 0.015 kPa
same,vapor or sublimation pressure,372.64 K,11.06 ± 0.017 kPa
same,vapor or sublimation pressure,377.56 K,13.87 ± 0.02 kPa
same,vapor or sublimation pressure,381.8 K,16.77 ± 0.024 kPa
same,vapor or sublimation pressure,381.81 K,16.77 ± 0.024 kPa
same,vapor or sublimation pressure,386.17 K,20.26 ± 0.028 kPa
same,vapor or sublimation pressure,390.77 K,24.54 ± 0.033 kPa
same,vapor or sublimation pressure,390.78 K,24.54 ± 0.033 kPa
same,vapor or sublimation pressure,395.23 K,29.35 ± 0.039 kPa
same,vapor or sublimation pressure,399.57 K,34.77 ± 0.045 kPa
same,vapor or sublimation pressure,403.73 K,40.7 ± 0.052 kPa
same,vapor or sublimation pressure,407.98 K,47.57 ± 0.061 kPa
same,vapor or sublimation pressure,414.61 K,60.2 ± 0.074 kPa
same,vapor or sublimation pressure,420.99 K,74.69 ± 0.091 kPa
same,vapor or sublimation pressure,427.85 K,93.19 ± 0.11 kPa
same,vapor or sublimation pressure,427.9 K,93.26 ± 0.11 kPa
same,vapor or sublimation pressure,429.52 K,98.12 ± 0.12 kPa
same,vapor or sublimation pressure,429.54 K,98.16 ± 0.12 kPa
same,vapor or sublimation pressure,431.85 K,105.46 ± 0.12 kPa
same,vapor or sublimation pressure,432.25 K,106.75 ± 0.12 kPa
same,vapor or sublimation pressure,432.32 K,106.98 ± 0.13 kPa
CCCCCCCCO [octan-1-ol],vapor or sublimation pressure,397.32 K,8.355 ± 0.014 kPa
same,vapor or sublimation pressure,403.71 K,11.1 ± 0.017 kPa
same,vapor or sublimation pressure,409.14 K,13.95 ± 0.02 kPa
same,vapor or sublimation pressure,413.79 K,16.83 ± 0.023 kPa
same,vapor or sublimation pressure,418.61 K,20.33 ± 0.027 kPa
same,vapor or sublimation pressure,418.62 K,20.33 ± 0.027 kPa
same,vapor or sublimation pressure,418.63 K,20.33 ± 0.027 kPa
same,vapor or sublimation pressure,423.7 K,24.62 ± 0.032 kPa
same,vapor or sublimation pressure,428.65 K,29.45 ± 0.037 kPa
same,vapor or sublimation pressure,433.49 K,34.89 ± 0.043 kPa
same,vapor or sublimation pressure,438.12 K,40.83 ± 0.05 kPa
same,vapor or sublimation pressure,438.14 K,40.83 ± 0.05 kPa
same,vapor or sublimation pressure,442.88 K,47.73 ± 0.059 kPa
same,vapor or sublimation pressure,450.34 K,60.37 ± 0.072 kPa
same,vapor or sublimation pressure,457.52 K,74.88 ± 0.088 kPa
same,vapor or sublimation pressure,465.25 K,93.42 ± 0.11 kPa
same,vapor or sublimation pressure,465.29 K,93.54 ± 0.11 kPa

# — the NIST ThermoML archive (doi:10.1016/j.fluid.2010.06.019)
